How the values were obtained:
K562 [1] = assay: Cytotoxicity against human K562 cells incubated for 72 hrs by CCK8 assay; assay type: functional, cell-based; conditions: K562, 72 h
K562 [2] = assay: Potency index, ratio of doxorubicin IC50 to compound IC50 for human K562 cells; assay type: functional
K562/Adr [3] = assay: Potency index, ratio of doxorubicin IC50 to compound IC50 for human K562/ADR cells; assay type: functional
K562/Adr [4] = assay: Cytotoxicity against human K562/ADR cells incubated for 72 hrs by CCK8 assay; assay type: functional, cell-based
[5] = Resistance index, ratio of IC50 for human K562/ADR cells to IC50 for human K562 cells; assay type: functional
HCT-116 = assay: Antiproliferative activity against human HCT116 cells incubated for 3 days by MTT assay; assay type: functional, cell-based; conditions: HCT-116, 72 h
A549 [6] = assay: Antiproliferative activity against human A549 cells incubated for 3 days by MTT assay; assay type: functional, cell-based; conditions: A549, 72 h
HepG2 [7] = assay: Antiproliferative activity against human HepG2 cells incubated for 3 days by MTT assay; assay type: functional, cell-based; conditions: HepG2, 72 h
K562/A02 = assay: Antiproliferative activity against human K562/A02 cells by MTT assay; assay type: functional, cell-based
HeLa [8] = assay: Antiproliferative activity against human HeLa cells by MTT assay; assay type: functional, cell-based
Huh-7 = assay: Antiproliferative activity against human Huh7 cells incubated for 48 hrs by MTT assay; assay type: functional, cell-based; conditions: Huh-7, 48 h
BGC-823 = assay: Antiproliferative activity against human BGC-823 cells incubated for 48 hrs by MTT assay; assay type: functional, cell-based; conditions: BGC-823, 48 h
MCF7 [9] = assay: Antiproliferative activity against human MCF7 cells incubated for 48 hrs by MTT assay; assay type: functional, cell-based; conditions: MCF7, 48 h
HeLa [10] = assay: Antiproliferative activity against human HeLa cells incubated for 48 hrs by MTT assay; assay type: functional, cell-based
A549 [11] = assay: Antiproliferative activity against human A549 cells incubated for 48 hrs by MTT assay; assay type: functional, cell-based; conditions: A549, 48 h
CT26 = assay: Antiproliferative activity against […] cells incubated for 72 hrs by MTT assay; assay type: functional, cell-based; conditions: Mus musculus, CT26, 72 h
SK-OV-3 = assay: Antiproliferative activity against human SK-OV-3 cells incubated for 72 hrs by MTT assay; assay type: functional, cell-based; conditions: SK-OV-3, 72 h
HeLa [12] = assay: Antiproliferative activity against human HeLa cells incubated for 72 hrs by MTT assay; assay type: functional, cell-based
B16-F10 = assay: Antiproliferative activity against mouse B16/F10 cells incubated for 72 hrs by MTT assay; assay type: functional, cell-based; conditions: B16-F10, 72 h
A549 [13] = assay: Antiproliferative activity against human A549 cells incubated for 72 hrs by MTT assay; assay type: functional, cell-based; conditions: A549, 72 h
HepG2 [14] = assay: Antiproliferative activity against human HepG2 cells incubated for 72 hrs by MTT assay; assay type: functional, cell-based; conditions: HepG2, 72 h
MCF7 [15] = assay: Antiproliferative activity against human MCF7 cells incubated for 72 hrs by MTT assay; assay type: functional, cell-based; conditions: MCF7, 72 h

Compound: COc1cc([C@@H]2c3cc4c(cc3[C@@H](OC(=O)/C=C/c3ccccc3)[C@H]3COC(=O)[C@H]23)OCO4)cc(OC)c1OC
- IC50 (K562 [1]): 11 nM
- Ratio IC50 (K562 [2]): 2.2
- Ratio IC50 (K562/Adr [3]): 2.2
- IC50 (K562/Adr [4]): 11 nM
- Ratio IC50 [5]: 1.1

Compound: COc1cc([C@@H]2c3cc4c(cc3[C@@H](NC(=S)NC(=O)c3ccc(Cl)cc3)[C@H]3COC(=O)[C@H]23)OCO4)cc(OC)c1OC
- IC50 (HCT-116): 100 nM
- IC50 (A549 [6]): 100 nM
- IC50 (HepG2 [7]): 100 nM

Compound: COc1cc([C@@H]2c3cc4c(cc3[C@@H](NC(=S)NC(=O)c3cccs3)[C@H]3COC(=O)[C@H]23)OCO4)cc(OC)c1OC
- IC50 (HCT-116): 100 nM
- IC50 (A549 [6]): 100 nM
- IC50 (HepG2 [7]): 100 nM

Compound: COc1cc([C@@H]2c3cc4c(cc3[C@@H](NC(=S)NC(=O)c3ccc(F)cc3)[C@H]3COC(=O)[C@H]23)OCO4)cc(OC)c1OC
- IC50 (HCT-116): 100 nM
- IC50 (A549 [6]): 100 nM
- IC50 (HepG2 [7]): 100 nM

Compound: C=CC(=O)O[C@@H]1c2cc3c(cc2[C@@H](c2cc(OC)c(OC)c(OC)c2)[C@H]2C(=O)OC[C@@H]21)OCO3
- IC50 (K562 [1]): 11 nM
- Ratio IC50 (K562 [2]): 2.2
- Ratio IC50 (K562/Adr [3]): 2.2
- IC50 (K562/Adr [4]): 11 nM
- Ratio IC50 [5]: 1.1

Compound: COc1cc([C@@H]2c3cc4c(cc3[C@@H](NCc3cc5cc(F)ccc5[nH]3)[C@H]3COC(=O)[C@H]23)OCO4)cc(OC)c1OC
- IC50 (K562/A02): 100 nM
- IC50 (HeLa [8]): 100 nM

Compound: COc1cc([C@@H]2c3cc4c(cc3[C@@H](NC(=S)NC(=O)c3ccccc3Br)[C@H]3COC(=O)[C@H]23)OCO4)cc(OC)c1OC
- IC50 (HCT-116): 100 nM
- IC50 (A549 [6]): 100 nM
- IC50 (HepG2 [7]): 100 nM

Compound: COc1cc([C@@H]2c3cc4c(cc3[C@@H](NC(=S)NC(=O)c3cccc5ccccc35)[C@H]3COC(=O)[C@H]23)OCO4)cc(OC)c1OC
- IC50 (HCT-116): 100 nM
- IC50 (A549 [6]): 100 nM
- IC50 (HepG2 [7]): 100 nM

Compound: COc1cc([C@@H]2c3cc4c(cc3[C@@H](Nc3ncccc3C)[C@H]3COC(=O)[C@H]23)OCO4)cc(OC)c1OC
- IC50 (Huh-7): 60 nM
- IC50 (BGC-823): 60 nM
- IC50 (MCF7 [9]): 60 nM
- IC50 (HeLa [10]): 60 nM
- IC50 (A549 [11]): 60 nM

Compound: COc1ccc2[nH]c(CN[C@@H]3c4cc5c(cc4[C@@H](c4cc(OC)c(OC)c(OC)c4)[C@H]4C(=O)OC[C@@H]43)OCO5)cc2c1
- IC50 (K562/A02): 100 nM
- IC50 (HeLa [8]): 100 nM

Compound: COc1cc([C@@H]2c3cc4c(cc3[C@@H](Nc3ncccc3C)[C@H]3COC(=O)[C@H]23)OCO4)cc(OC)c1O
- IC50 (Huh-7): 60 nM
- IC50 (BGC-823): 60 nM
- IC50 (MCF7 [9]): 60 nM
- IC50 (HeLa [10]): 60 nM
- IC50 (A549 [11]): 60 nM

Compound: COc1cc([C@@H]2c3cc4c(cc3[C@@H](NC(=S)NC(=O)c3cccc(C)c3)[C@H]3COC(=O)[C@H]23)OCO4)cc(OC)c1OC
- IC50 (HCT-116): 100 nM
- IC50 (A549 [6]): 100 nM
- IC50 (HepG2 [7]): 100 nM

Compound: COc1ccc(-c2coc3cc(OCCCC(=O)O[C@@H]4c5cc6c(cc5[C@@H](c5cc(OC)c(OC)c(OC)c5)[C@H]5C(=O)OC[C@@H]54)OCO6)ccc3c2=O)cc1
- IC50 (CT26): 213 nM
- IC50 (SK-OV-3): 213 nM
- IC50 (HeLa [12]): 213 nM
- IC50 (B16-F10): 213 nM
- IC50 (A549 [13]): 213 nM
- IC50 (HepG2 [14]): 213 nM
- IC50 (MCF7 [15]): 213 nM

Compound: COc1cc([C@@H]2c3cc4c(cc3[C@@H](NC(=S)NC(=O)c3cccc(Cl)c3)[C@H]3COC(=O)[C@H]23)OCO4)cc(OC)c1OC
- IC50 (HCT-116): 100 nM
- IC50 (A549 [6]): 100 nM
- IC50 (HepG2 [7]): 100 nM

Compound: COc1cc([C@@H]2c3cc4c(cc3[C@@H](NC(=S)NC(=O)c3ccccc3C)[C@H]3COC(=O)[C@H]23)OCO4)cc(OC)c1OC
- IC50 (HCT-116): 100 nM
- IC50 (A549 [6]): 100 nM
- IC50 (HepG2 [7]): 100 nM

Compound: COc1cc([C@@H]2c3cc4c(cc3[C@@H](NC(=S)NC(=O)c3ccccc3Cl)[C@H]3COC(=O)[C@H]23)OCO4)cc(OC)c1OC
- IC50 (HCT-116): 100 nM
- IC50 (A549 [6]): 100 nM
- IC50 (HepG2 [7]): 100 nM
